From patent US20020019527A1 (priority 2000, published 2002)
Counter-ions that a name gives are not always drawn.

Target: T1, Farnesyltransferase (FTase) (Bos taurus, UniProt P29702+P49355)
T1 construct: precipitation from a beef brain homogenate; from tissue; host or cells: bovine brain
Assay: Farnesyltransferase inhibition (scintillation proximity assay, [3H]-FPP / biotin-K-ras peptide)
Type: biochemical, bovine
Details: not given
Procedure: Farnesyltransferase (FTase) or geranylgeranyltransferase I (GGTase I) fractions were isolated from bovine brains and purified by a series of methods which separate FTase from GGTase I and GGTase I from GGTase II. The methods involved a partial purification of all three enzymes by precipitation from a beef brain homogenate with 30% to 50% saturated […] followed by chromatography on DEAE Sepharose. […] The catalytic purity of each enzyme was assayed separately with substrate acceptor proteins specific for that enzyme. After quickly freezing in liquid nitrogen, the various prenyl transferases were stored at −80° C.
The quenched reactions stood for 1 hour before analysis in a Packard TopCount scintillation counter. Purified compounds were dissolved in 100% ethanol and diluted 10-fold into the assay.

T1 sequence (P49355 whole entry, one chain of several): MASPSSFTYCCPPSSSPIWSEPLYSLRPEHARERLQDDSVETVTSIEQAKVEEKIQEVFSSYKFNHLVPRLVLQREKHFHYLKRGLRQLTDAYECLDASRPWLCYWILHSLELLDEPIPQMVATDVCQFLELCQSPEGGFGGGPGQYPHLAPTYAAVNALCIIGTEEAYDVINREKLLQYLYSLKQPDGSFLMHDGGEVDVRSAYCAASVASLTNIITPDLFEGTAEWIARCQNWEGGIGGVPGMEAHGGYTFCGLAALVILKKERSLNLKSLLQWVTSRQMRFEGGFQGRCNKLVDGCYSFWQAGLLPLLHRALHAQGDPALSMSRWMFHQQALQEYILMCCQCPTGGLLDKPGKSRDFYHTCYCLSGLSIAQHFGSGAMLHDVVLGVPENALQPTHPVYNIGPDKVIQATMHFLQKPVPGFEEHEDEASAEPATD

SMILES	% Inhibition at 10^−6M [%]
Cc1ccccc1-c1cc(C(NCc2ccc([N+](=O)[O-])cc2)c2cncn2C)ccc1C#N (centres unmarked) [Example 12]	100
Cc1ccccc1-c1cc(C(c2cncn2C)N2CCN(c3cccc(OC(F)(F)F)c3)C(=O)C2)ccc1C#N.Cl.Cl (centres unmarked) [Example 15]	100

Same assay, conditions: compound at 10^−6 M; bovine FTase, 37° C., 30 minutes

inhibition at 1 µM [%]	SMILES	% Inhibition at 10^−6M [%]
100	Cc1ccccc1-c1cc(C(NCC2CCCCC2)c2cncn2C)ccc1C#N (centres unmarked) [Example 24, 5-(((cyclohexylmethyl)amino)(1-methyl-1H-imidazol-5-yl)methyl)-2′-methyl(1,1′-biphenyl)-2-carbonitrile]	
100	Cc1ccccc1-c1cc(C(NCc2ccc(C#N)cc2)c2cncn2C)ccc1C#N (centres unmarked) [Example 25, 5-(((4-cyanobenzyl)amino)(1-methyl-1H-imidazol-5-yl)methyl)-2′-methyl(1,1′-biphenyl)-2-carbonitrile]	
100	CCN(Cc1ccc([N+](=O)[O-])cc1)C(c1ccc(C#N)c(-c2ccccc2C)c1)c1cncn1C (centres unmarked) [Example 27, 5-((ethyl(4-nitrobenzyl)amino)(1-methyl-1H-imidazol-5-yl)methyl)-2′-methyl(1,1′-biphenyl)-2-carbonitrile dihydrochloride]	
100	CCN(Cc1ccc(C#N)cc1)C(c1ccc(C#N)c(-c2ccccc2C)c1)c1cncn1C (centres unmarked) [Example 28, 5-(((4-cyanobenzyl)(ethyl)amino)(1-methyl-1H-imidazol-5-yl)methyl)-2′-methyl(1,1′-biphenyl)-2-carbonitrile dihydrochloride]	
100	CN(Cc1ccc(C#N)cc1)C(c1ccc(C#N)c(-c2cccc3ccccc23)c1)c1cncn1C (centres unmarked) [Example 29, 4-(((4-cyanobenzyl)(methyl)amino)(1-methyl-1H-imidazol-5-yl)methyl)-2-(1-naphthyl)benzonitrile]	
100	CCCCN(Cc1ccc(C#N)cc1)C(c1ccc(C#N)c(-c2cccc3ccccc23)c1)c1cncn1C (centres unmarked) [Example 30, 4-((butyl(4-cyanobenzyl)amino)(1-methyl-1H-imidazol-5-yl)methyl)-2-(1-naphthyl)benzonitrile dihydrochloride]	
100	Cn1cncc1C(NCCc1ccccc1)c1ccc(C#N)c(-c2cccc3ccccc23)c1 (centres unmarked) [Example 31, 4-((1-methyl-1H-imidazol-5-yl)(phenethylamino)methyl)-2-(1-naphthyl)benzonitrile]	
93	Cc1ccccc1-c1cc(CN(Cc2ccccc2)Cc2cncn2C)ccc1C#N [Example 32, 5-((benzyl((1-methyl-1H-imidazol-5-yl)methyl)amino)methyl)-2′-methyl(1,1′-biphenyl)-2-carbonitrile dihydrochloride]	
100	Cn1cncc1C(NCc1ccc(C#N)c(Br)c1)c1ccc(C#N)c(-c2cccc3ccccc23)c1 (centres unmarked) [Example 33, 4-(((3-bromo-4-cyanobenzyl)amino)(1-methyl-1H-imidazol-5-yl)methyl)-2-(1-naphthyl)benzonitrile dihydrochloride]	
100	Cn1cncc1CN(Cc1ccc(C#N)cc1)Cc1ccc(C#N)c(-c2cccc3ccccc23)c1 [Example 34, 4-(((4-cyanobenzyl)((1-methyl-1H-imidazol-5-yl)methyl)amino)methyl)-2-(1-naphthyl)benzonitrile]	
100	Cn1cncc1C(NCc1ccc(C#N)c(Cl)c1)c1ccc(C#N)c(-c2cccc3ccccc23)c1 (centres unmarked) [Example 35, 4-(((3-chloro4-cyanobenzyl)amino)(1-methyl-1H-imidazol-5-yl)methyl)-2-(1-naphthyl)benzonitrile dihydrochloride]	
100	CC(NC(c1ccc(C#N)c(-c2cccc3ccccc23)c1)c1cncn1C)c1ccc(C#N)cc1 (centres unmarked) [Example 36, 4-(((1-(4-cyanophenyl)ethyl)amino)(1-methyl-1H-imidazol-5-yl)methyl)-2-(1-naphthyl)benzonitrile dihydrochloride]	
100	Cn1cncc1C(NCc1ccc(C#N)c(I)c1)c1ccc(C#N)c(-c2cccc3ccccc23)c1 (centres unmarked) [Example 37, 4-(((4-cyano-3-iodobenzyl)amino)(1-methyl-1H-imidazol-5-yl)methyl)-2-(1-naphthyl)benzonitrile dihydrochloride]	
100	COC(=O)c1ccc(CNC(c2ccc(C#N)c(-c3cccc4ccccc34)c2)c2cncn2C)cc1 (centres unmarked) [Example 38, methyl 4-((((4-cyano-3-(1-naphthyl)phenyl)(1-methyl-1H-imidazol-5-yl)methyl)amino)methyl)benzoate]	
100	Cn1cncc1CN(Cc1ccc(Cl)cc1)Cc1ccc(C#N)c(-c2cccc3ccccc23)c1 [Example 40, 4-(((4-chlorobenzyl)((1-methyl-1H-imidazol-5-yl)methyl)amino)methyl)-2-(1-naphthyl)benzonitrile dihydrochloride]	
100	Cn1cncc1CN(Cc1ccc(OC(F)(F)F)cc1)Cc1ccc(C#N)c(-c2cccc3ccccc23)c1 [Example 41, 4-((((1-methyl-1H-imidazol-5-yl)methyl)(4-(trifluoromethoxy)benzyl)amino)methyl)-2-(1-naphthyl)benzonitrile dihydrochloride]	

The next lines start with the molecule.

SMILES	inhibition at 1 µM [%]	% Inhibition at 10^−6M [%]
Cc1ccccc1-c1cc(C(Oc2ccccc2)c2cncn2C)ccc1C#N (centres unmarked) [Example 4, 2′-methyl-5-((1-methyl-1H-imidazol-5-yl)(phenoxy)methyl)(1,1′-biphenyl)-2-carbonitrile hydrochloride]	88	
COc1ccccc1-c1cc(C(OCc2ccccc2)c2cncn2C)ccc1C#N (centres unmarked) [Example 5, 5-((benzyloxy)(1-methyl-1H-imidazol-5-yl)methyl)-2′-methoxy(1,1′-biphenyl)-2-carbonitrile hydrochloride]	91	
Cn1cncc1C(OCc1ccccc1)c1ccc(C#N)c(-c2cccc(-c3ccccc3)c2)c1 (centres unmarked) [Example 6, 5-((benzyloxy)(1-methyl-1H-imidazol-5-yl)methyl)-3′-(phenyl)(1,1′-biphenyl)-2-carbonitrile hydrochloride]	61	
Cl.Cn1cncc1C(OCc1ccccc1)c1ccc(C#N)c(-c2c3ccccc3cc3ccccc23)c1 (centres unmarked) [Example 7]		92
CC(C)c1ccccc1-c1cc(C(OCc2ccccc2)c2cncn2C)ccc1C#N (centres unmarked) [Example 8, 5-((benzyloxy)(1-methyl-1H-imidazol-5-yl)methyl)-2′-isopropyl(1,1′-biphenyl)-2-carbonitrile hydrochloride]	100	
Cn1cncc1C(OCc1ccccc1)c1ccc(C#N)c(-c2ccc3c4c(cccc24)CC3)c1 (centres unmarked) [Example 9, 4-((benzyloxy)(1-methyl-1H-imidazol-5-yl)methyl)-2-(1,2-dihydro-5-acenaphthylenyl)benzonitrile hydrochloride]	64	
Cn1cncc1C(OCc1ccccc1)c1ccc(C#N)c(-c2ccccc2Cl)c1 (centres unmarked) [Example 10, 5-((benzyloxy)(1-methyl-1H-imidazol-5-yl)methyl)-2′-chloro(1,1′-biphenyl)-2-carbonitrile hydrochloride]	94	
Cc1ccccc1-c1cc(C(OCc2ccccc2)c2cncn2C)ccc1C#N (centres unmarked) [Example 11, 5-((benzyloxy)(1-methyl-1H-imidazol-5-yl)methyl)-2′-methyl(1,1′-biphenyl)-2-carbonitrile hydrochloride]	94	
Cn1cncc1C(NCc1ccc(C#N)cc1)c1ccc(C#N)c(-c2cccc3ccccc23)c1 (centres unmarked) [Example 13, 4-(((4-cyanobenzyl)amino)(1-methyl-1H-imidazol-5-yl)methyl)-2-(1-naphthyl)benzonitrile dihydrochloride]	100	
Cn1cncc1C(OCC1CCCCC1)c1ccc(C#N)c(-c2cccc3ccccc23)c1 (centres unmarked) [Example 14, 4-((cyclohexylmethoxy)(1-methyl-1H-imidazol-5-yl)methyl)-2-(1-naphthyl)benzonitrile hydrochloride]	100	
Cc1ccccc1-c1cc(C(NC2CCN(C(=O)c3ccccc3)CC2)c2cncn2C)ccc1C#N (centres unmarked) [Example 16, 5-(((1-benzoyl-4-piperidinyl)amino)(1-methyl-1H-imidazol-5-yl)methyl)-2′-methyl(1,1′-biphenyl)-2-carbonitrile dihydrochloride]	100	
Cl.Cl.Cn1cncc1C(NCc1ccc(S(C)(=O)=O)cc1)c1ccc(C#N)c(-c2cccc3ccccc23)c1 (centres unmarked) [Example 17]		100
Cn1cncc1C(OCc1ccc(C#N)cc1)c1ccc(C#N)c(-c2cccc3cccnc23)c1 (centres unmarked) [Example 18, 4-(((4-cyanobenzyl)oxy)(1-methyl-1H-imidazol-5-yl)methyl)-2-(8-quinolinyl)benzonitrile dihydrochloride]	100	
Cn1cncc1C(OCc1ccc(C#N)cc1)c1ccc(C#N)c(-c2ccnc3ccccc23)c1 (centres unmarked) [Example 19, 4-(((4-cyanobenzyl)oxy)(1-methyl-1H-imidazol-5-yl)methyl)-2-(4-quinolinyl)benzonitrile dihydrochloride]	100	
Cc1ccccc1-c1cc(C(NCc2ccccc2)c2cncn2C)ccc1C#N (centres unmarked) [Example 23, 5-((benzylamino)(1-methy-1H-imidazol-5-yl)methyl)-2′-methyl(1,1′-biphenyl)-2-carbonitrile]		100
Cc1ccccc1-c1cc(CNC(c2ccc(C#N)c(-c3ccccc3C)c2)c2cncn2C)ccc1C#N (centres unmarked) [Example 26]		100
Cn1cncc1C(NCc1ccc(C(=O)O)cc1)c1ccc(C#N)c(-c2cccc3ccccc23)c1 (centres unmarked) [Example 39, lithium 4-((((4-cyano-3-(1-naphthyl)phenyl)(1-methyl-1H-imidazol-5-yl)methyl)amino)methyl)benzoate]	100	
